What was measured:
Format in all cases: in vivo
[1] = system: human-derived mesenchymal stem cells (hMSCs); test: qPCR of human-specific ALU DNA sequence in mouse brain (residual amount of hMSCs); details: normal C57B/L6 mice, hMSCs plus immunosuppressant, compared to hMSC-alone administration group
Iba-1 microglia = test: IHC of Iba-1 microglia in mouse brain after hMSC administration; details: normal C57B/L6 mice, hMSCs plus immunosuppressant, day 7, compared to hMSC group
Procedure: (§1) On day 7 after administration of MEM or hMSCs, the brain was extracted by performing cardiac perfusion, and then fixed in PFA, and histological staining was performed by sectioning tissue.
(§2) MEM or hMSCs were administered to normal C57BL/6 and immunodeficient BALB/c nude mice under the same conditions as in Example 3. […]

helper T cells (CD4) = test: IHC of helper T cells (CD4) in mouse brain after hMSC administration; details: normal C57B/L6 mice, hMSCs plus immunosuppressant, day 7, compared to hMSC group
Procedure: as §1, §2

C=CC[C@@H]1/C=C(\C)C[C@H](C)C[C@H](OC)[C@H]2O[C@@](O)(C(=O)C(=O)N3CCCC[C@H]3C(=O)O[C@H](/C(C)=C/[C@@H]3CC[C@@H](O)[C@H](OC)C3)[C@H](C)[C@@H](O)CC1=O)[C@H](C)C[C@@H]2OC [tacrolimus]
retention rate (survival rate) of stem cells (qPCR) [1]: enhanced
expression of Iba-1 (IHC) (Iba-1 microglia): not statistically significant
expression of CD4 (IHC) (helper T cells (CD4)): reduced
